{"source": "patent US9592214B2", "about": "“Compounds for the treatment of autism in a baby child” (INSERM (INSTITUT NATIONAL DE LA SANTE ET DE LA RECHERCHE …, priority 2010, dated 2017)", "key": {"[1]": {"system": "hippocampal CA3 pyramidal cells", "test": "Acute application of bumetanide to hippocampal slices: DFGABA from cell-attached single GABAA channel recordings", "assay_type": "cell-based, rat", "details": "acute bumetanide 10 μM", "quoted_text": "Time-mated female Wistar rats at gestational day E7-8 were housed under standard laboratory conditions. […] The offspring were used for experiments on embryonic day 20 (E20) and postnatal (P) days 0, 2, 4, 7, 15 and 30 (after being weaned at P23). Experiments were carried out on offspring of either sex.\nHippocampal slices (300-500 nm thick) were prepared using a Microm tissue slicer (International GmbH, Germany) as described previously (Tyzio et al. 2006 Science 314, 1788; Tyzio et al, 2008, Eur J. Neurosci. 27(10):2515-28). Slices were kept in oxygenated (95% O2/5% CO2) artificial cerebrospinal fluid (ACSF) of the following composition (in mM): NaCl 126, KCl 3.5, CaCl2 2.0, MgCl2 1.3, NaHCO3 25, NaH2PO4 1.2 and glucose 11 (pH 7.4) at room temperature (20-22° C.) at least 1 hour before use.\nBumetanide (10 μM), Oxytocin (1 μM) and Isoguvacine (2 μM) were directly added to the perfusion solutions. […] All drugs used were purchased from Sigma."}, "[2]": {"system": "Valproate rat model of autism", "test": "In vivo EEG recordings in the CA3 area of hippocampus of head-restrained rats", "details": "for Integral power spectra of EEG recordings, mean ± S.E.M.: VPA rats with maternal BUM pretreatment, P13-15", "procedure": "(§1) Time-mated female Wistar rats at gestational day E7-8 were housed under standard laboratory conditions. The in utero valproic acid (VPA) rodent model of autism spectrum disorders has been previously described in detail. Briefly, the sodium salt of VPA (Sigma-Aldrich) was dissolved in physiological saline solution to a concentration of 300 mg/ml. Pregnant rats received a single intra-peritoneal dose of 600 mg/kg on gestational day 12 (E12). The control dams received a single similar volume injection of saline at the same gestational time-point. Dams were housed individually and allowed to raise their own litters. The offspring were used for experiments on embryonic day 20 (E20) and postnatal (P) days 0, 2, 4, 7, 15 and 30 (after being weaned at P23). Experiments were carried out on offspring of either sex.\nHead-fixed rat pups of age P13-P15 were prepared for extracellular recording under isoflurane anesthesia. The skin and periosteum were removed from the skull, which was then covered by glue and dental cement except for a 4-9 mm^2 window above the somatosensory cortex from one or two hemispheres for the silicon probe penetration (4.0-4.2 mm lateral to midline and 2.2-2.5 mm caudal to bregma) and for the reference electrode (1.0-1.5 mm lateral to midline and 6.0-6.5 mm caudal to bregma). The rat was positioned in the stereotaxic apparatus. A 1 mm-diameter burr hole was drilled in the skull; the dura was cut and removed. Recordings were made 1 h after recovery from anesthesia. Pups were kept restrained for <3 h and were closely monitored for signs of stress and to ensure that they spent a normal proportion of their time sleeping. The outside temperature was maintained between 35 and 36° C. The animals were kept in low-light conditions throughout all experiments. 16-site linear silicone probe (NeuroNexus Technologies) coupled to a direct-current amplifier (Molecular Devices) and dunked previously in fluorescent dye (DiI, Invitrogen) was slowly penetrated via the hole at […] depth under the angle 30° in the coronal plane. EEGs were recorded during 2 hours, using a 16-channel amplifier (A-M System, Inc.) and digitized at 5 kHz using Axoscope software (Molecular Deviced). Recordings were amplified and high-pass filtered at 0.3 Hz in Axoscope. Silicone probe location was verified postmortem via dye localization. To quantify the frequency band integral power the traces were band-pass filtered at frequency bands […]) θ-(4-7 Hz), α-(7-12 Hz), β-(12-25 Hz), Low γ-(25-60 Hz), High γ-(60-120 Hz) and Fast oscillations-(120-500 Hz)). Fast Fourier Transform (FFT) was applied with Clampfit (Molecular Devices). Integrals of FFT power spectra were taken and averaged with OriginPro (OriginLab Corporation).\n(§2) Bumetanide (10 μM), Oxytocin (1 μM) and Isoguvacine (2 μM) were directly added to the perfusion solutions. Bumetanide pretreatment (2-2.5 mg/kg) was given to the dams in drinking water. All drugs used were purchased from Sigma. SSR126768A (Sanofi-Synthelabo) pretreatment (1 mg/kg) was given to the dams in drinking water."}, "[3]": {"system": "hippocampal CA3 pyramidal cells", "test": "DFGABA in hippocampal CA3 pyramidal cells of offspring after in utero VPA / maternal bumetanide pretreatment", "assay_type": "in vivo, rat", "details": "for DFGABA (mV), mean ± S.E.: P15 VPA rats, maternal bumetanide pretreatment (2-2.5 mg/kg in drinking water, 1 day before delivery)", "procedure": "as §1\nExperiments were performed on fetuses and neonatal rat pups. We removed E20 rats from deeply anesthetized dams [subcutaneous injection of a mixture of xylazine (Rompun 2%; used at 0.05%) and ketamine (Imalgene 1000 used at 50 g/l)]. Hippocampal slices ([…] thick) were prepared using a Microm tissue slicer (International GmbH, Germany) as described previously (Tyzio et al. 2006 Science 314, 1788; Tyzio et al, 2008, Eur J. Neurosci. 27(10):2515-28). Slices were kept in oxygenated (95% O2/5% CO2) artificial cerebrospinal fluid (ACSF) of the following composition (in mM): NaCl 126, KCl 3.5, CaCl2 2.0, MgCl2 1.3, NaHCO3 25, NaH2PO4 1.2 and glucose 11 (pH 7.4) at room temperature (20-22° C.) at least 1 hour before use.\nFor recordings, slices were placed into a conventional fully submerged chamber superfused with ACSF at a rate of 2-3 ml/min at room temperature. Patch clamp recordings from visually identified CA3 pyramidal cells in cell-attached configuration were performed using EPC-10 amplifier (HEKA Elektronik Dr. Schulze GmbH, Lambrecht/Pfalz, Germany). Patch pipette solution for recordings of single GABAA channels contained (in mM): NaCl 120, KCl 5, TEA-Cl 20, 4-aminopyridine 5, CaCl2 0.1, MgCl2 10, glucose 10, Hepes-NaOH 10 buffered to pH 7.2-7.3 and GABA 2 μM. Analysis of currents through single channels and current-voltage relationships were performed using Clampfit 9.2 (Axon Instruments, Union City, Calif.). Recordings were digitized (10 kHz) online with Digidata-1200 interface card (Axon Instruments, Union City, Calif.) and analyzed offline with Axon package, MiniAnalysis (S (Synaptsoft, Decatur, Ga.), and Origin (Microcal Software, Northampton, Mass.).\nas §2\nIf the polarity of GABA actions at delivery produces long terms effects in offsprings, then restoring low [Cl^−]i and inhibitory GABA at delivery might restore physiological parameters in juvenile rodents. To test this hypothesis, pregnant females were treated orally 1 day before delivery with bumetanide (2-2.5 mg/kg in drinking water) and juvenile offspring neurons recorded at P15. […] In VPA rats, GABAergic inputs are excitatory and contribute to hyperexcitability of the network. Bumetanide decreases [Cl^−]i and consequently reduces contribution of excitatory GABAergic inputs in the overall network activity."}}}
{"smiles": "CCCCNc1cc(C(=O)O)cc(S(N)(=O)=O)c1Oc1ccccc1", "note": "[bumetanide]", "values": [{"measurement": "[Cl−]i", "setting": "[1]; P0 VPA neurons, result in words", "result": "significantly decreased"}, {"measurement": "DFGABA mV), mean±", "setting": "[1]; P0 VPA rats", "result": "−2.4 ± 1.2 (n = 21) mV"}, {"measurement": "DFGABA mV), mean±", "setting": "[1]; P0 control rats", "result": "−5.3 ± 0.7 (n = 17) mV"}, {"measurement": "EEG oscillatory hyperactivity and power of network oscillations", "setting": "[2]; P13-P15 VPA offspring, maternal bumetanide pretreatment, result in words", "result": "abolished hyperactivity and restored physiological values"}, {"measurement": "Integral power spectra of EEG recordings, mean ± S.E.M.", "setting": "[2]; frequency band 0.5-4 Hz", "result": "88.53 ± 27.57"}, {"measurement": "Integral power spectra of EEG recordings, mean ± S.E.M.", "setting": "[2]; frequency band 4-7 Hz", "result": "15.40 ± 4.25"}, {"measurement": "Integral power spectra of EEG recordings, mean ± S.E.M.", "setting": "[2]; frequency band 7-12 Hz", "result": "7.09 ± 1.56"}, {"measurement": "Integral power spectra of EEG recordings, mean ± S.E.M.", "setting": "[2]; frequency band 12-25 Hz", "result": "6.35 ± 1.52"}, {"measurement": "Integral power spectra of EEG recordings, mean ± S.E.M.", "setting": "[2]; frequency band 25-60 Hz", "result": "0.97 ± 0.20"}, {"measurement": "Integral power spectra of EEG recordings, mean ± S.E.M.", "setting": "[2]; frequency band 60-120 Hz", "result": "0.32 ± 0.06"}, {"measurement": "Integral power spectra of EEG recordings, mean ± S.E.M.", "setting": "[2]; frequency band 120-500 Hz", "result": "1.18 ± 0.19"}, {"measurement": "DFGABA values in offsprings", "setting": "[3]; P15 VPA offspring, maternal bumetanide pretreatment, result in words", "result": "restored control DFGABA values"}, {"measurement": "DFGABA (mV), mean ± S.E.", "setting": "[3]", "result": "0.4±1.1", "unit": "mV"}, {"measurement": "DFGABA (mV), mean ± S.E.", "setting": "[3]; listed as BUM", "result": "0.4 ± 1.1 (n = 58) mV"}]}
